From US8642541B2 (priority 2008, dated 2014)
Entries after “also recorded” stand apart in the source; their conditions may differ.

Columns and labels:
[1] = target: T1, human Glucagon-R (Homo sapiens, UniProt P47871); assay: Glucagon receptor efficacy assay (cAMP, HEK293 cells); format: cell-based; conditions: read-out: GLUR EC50
T1 construct: expressed in transfected cells
Method: The 5′-end primers additionally encoded a near Kozak consensus sequence to ensure efficient translation.
48 hr after transfection cells were seeded for limited dilution cloning and selected with 1 mg/ml G418 in the culture medium.
On the day of analysis, growth medium was removed and the cells washed once with 200 μl Tyrode buffer. Cells were incubated in 100 μl Tyrode buffer containing increasing concentrations of test peptides, 100 μM IBMX, and 6 mM glucose for 15 min at 37° C. The reaction was stopped by addition of 25 μl 0.5 M HCl and incubated on ice for 60 min. The cAMP content was estimated using the FlashPlate® cAMP kit from Perkin-Elmer.

[2] = 28 day treatment of DIO mice: plasma cholesterol, HDL and LDL; format: in vivo; conditions: 4 weeks b.i.d., compared to vehicle
Method: Four weeks before drug treatments, C57Bl/6 male mice (7 weeks) (10-12 animals in each group) were put on high fat diet (HFD) and their day-night cycle reversed with lights On/Off at 2000/0800 hour. Experimental animals were conditioned to treatment by daily injections (s.c.) of 0.1 ml vehicle and acclimatized to handling by weighing them twice a week one week before start of drug administrations. […] A non-obese control group maintained on regular chow was treated with vehicle in the same treatment regime as the DIO groups. Body weights were recorded daily and used to administer the body weight-corrected doses of peptide throughout the study. Animals were fasted overnight before sacrifice. An eye blood sample (0.6 ml EDTA) was obtained the following morning immediately before cervical dislocation. Blood plasma samples were stored at −80° C. until analyzed for cholesterol, HDL and LDL using commercially available kits. Body weight gains throughout the treatment period were calculated for each animal by subtracting its weight at the initiation of treatment.
Statistical analyses of data on body weight gain and cholesterols among treatments by 2-way ANOVA with repeated measures and Bonferoni post-hoc analyses were performed with GraphPad Prism version 4. Differences were considered significant at the p<0.05 level.

[3] = Oral glucose tolerance test (OGTT) in db/db mice; format: in vivo; conditions: 45 nmol/kg i.p.
Method: The animals were kept fasted during the experiment to prevent confounding food intake. Fifteen minutes later an oral dose of glucose (1 g/kg in 5 ml/kg) was given and BG levels were measured at t=30 min, t=60 min, t=120 min and t=240 min.
Difference from baseline (t=0) was calculated for each time point and AUC0-240 min values were determined. Statistical analyses of AUC values by one-way ANOVA and Dunnetts post-hoc analyses were performed with GraphPad Prism version 4. Differences were considered significant at the p<0.05 level.

[4] = system: primary rat adipocyte cultures; format: cell-based
Method: Adipocytes were isolated from epididymal fat dissected from normal young adult Sprague-Dawley rats. The fat lumps were minced, incubated and shaken (220 rpm) with collagenase (1 mg/ml) in Krebs-Ringer buffer containing 4% BSA (KRB-BSA) for 60 minutes at 37° C. The suspension was filtered through a nylon filter (160 μm pore size) and the filtrate centrifuged at 200×g for 3 min. The subjacent medium beneath the upper floating layer of adipocytes was removed with a Pasteur-pipette. The adipocytes were washed 3 times in KRB-BSA buffer by re-suspension and centrifugation. The adipocytes were re-suspended in KRB-BSA, mixed, incubated in and shaken with test compounds in 96-deep well plates (50,000 cells/well) in a total volume of 1 ml at 37° C. for 60 min. The plates were placed on ice for at least 10 min after incubation followed by centrifugation at 200×g for 3 min. 300 μl of the buffer beneath the adipocyte layer were collected in a 96-deep well plate. This process was repeated two more times and the 3 extracts collected from each culture pooled together. The glycerol formed by the lipolysis in the adipocyte cultures was measured by adding free glycerol reagent (200 μl) to aliquots (25 μl) of adipocyte extract, incubate at room temperature for 15 min, and measure the absorbance at 540 nm.

[5] = 28 day treatment of diet induced obese (DIO) mice: body weight gain; format: in vivo
Method: Four weeks before drug treatments, C57Bl/6 male mice (7 weeks) (10-12 animals in each group) were put on high fat diet (HFD) and their day-night cycle reversed with lights On/Off at 2000/0800 hour. Experimental animals were conditioned to treatment by daily injections (s.c.) of 0.1 ml vehicle and acclimatized to handling by weighing them twice a week one week before start of drug administrations. The day before start of experiment, mice were stratified into groups with similar body weight (BW) and the next day groups of stratified mice were treated (b.i.d.; s.c.) with ZP2653 (SEQ ID NO: 4) (500 nmol/kg)), or vehicle (PBS, pH 7.4, 2.5 μl/g BW). A non-obese control group maintained on regular chow was treated with vehicle in the same treatment regime as the DIO groups. Body weights were recorded daily and used to administer the body weight-corrected doses of peptide throughout the study. Animals were fasted overnight before sacrifice. An eye blood sample (0.6 ml EDTA) was obtained the following morning immediately before cervical dislocation. Blood plasma samples were stored at −80° C. until analyzed for cholesterol, HDL and LDL using commercially available kits. Body weight gains throughout the treatment period were calculated for each animal by subtracting its weight at the initiation of treatment. […]

T1 sequence (P47871 26-477): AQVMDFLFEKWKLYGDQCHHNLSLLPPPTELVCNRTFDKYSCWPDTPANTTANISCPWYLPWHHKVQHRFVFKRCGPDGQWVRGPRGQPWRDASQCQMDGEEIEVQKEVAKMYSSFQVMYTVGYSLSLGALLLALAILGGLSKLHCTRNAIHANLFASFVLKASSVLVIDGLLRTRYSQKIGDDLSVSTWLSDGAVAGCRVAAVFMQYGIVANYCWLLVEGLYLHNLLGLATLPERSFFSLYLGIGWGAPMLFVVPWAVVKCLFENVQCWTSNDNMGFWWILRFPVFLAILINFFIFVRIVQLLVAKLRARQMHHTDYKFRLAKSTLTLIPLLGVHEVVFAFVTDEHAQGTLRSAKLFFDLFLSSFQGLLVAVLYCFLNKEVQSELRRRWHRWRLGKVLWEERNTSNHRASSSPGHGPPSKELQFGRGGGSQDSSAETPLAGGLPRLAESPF

H-HSQGTFTSDYSLYLDSRRAKDFIEWLERA-NH2 [Compound L006-0050]
EC50 [1]: 0.1 nM

H-HSQGTFTSDYSLYLDSRRAKDFIEWLESA-NH2 [ZP2653]
effect on HDL/LDL ratios [2]: significant
effect on concentrations of LDL cholesterol [2]: significant effect
improvement of glucose tolerance (decrease in Area Under the curve (AUC)) ([3]; AUC0-240 min): 39.5%
effect on oral glucose tolerance ([3]; OGTT): significantly improved glucose tolerance
EC50 [4]: 3.6 nM
lipolysis potency relative to OXM ([4]; primary adipocyte cultures): 50 times
lipolysis potency relative to glucagon ([4]; primary adipocyte cultures): equipotent to glucagon
effect on body weight gain ([5]; DIO mice on HFD, 500 nmol/kg b.i.d. s.c., 28 days, versus vehicle): decreased body weight gain to a level similar to that observed with chow feeding; also recorded: decreased body weight gain significantly
effect on fat deposition ([5]; DIO mice, 4 weeks treatment): significantly decreased fat deposition
